We go through five compounds from US6861416B2, “Oxazinones and methods for their use and synthesis” (Chirologix Pharmaceuticals, Inc., priority 2001, dated 2005).

As a reminder, the melting point is the temperature, or range, at which the solid turns liquid.

One data set has as its system Micrococcus luteus. In words: Filter disc bioassay on agar plates seeded with Micrococcus luteus. The format is cell-based. The conditions noted are these: for Zone Size: agar plate. As for the experimental part: Samples of 2-carboxymethyl-5-hydroxy-1,2-oxazin-3-one and penicillin were applied to a filter disc in the amounts indicated in Table 1, below. The discs were applied to agar plates seeded with Micrococcus luteus, and the plates were incubated over night at 37° C.
Samples of 2-[2-carboxypropyl]-5-hydroxy-1,2-oxazin-3-one and desacetoxycephalosporin G were applied to a filter disc in the amounts indicated in Table 2, below. The discs were applied to agar plates seeded with Micrococcus luteus, and the plates were incubated overnight at 37° C.

In turn, `C[C@H](C(=O)OC(C)(C)C)N1OC[C@@H](O)[C@@H](O)C1=O` [8b, (αR,4R,5R)-2-(α-tert-Butoxycarbonylethyl)-4,5-dihydroxy-1,2-oxazinan-3-one] gave a melting point of 93 to 94 °C.

In the case of `CC1=C(C(=O)O)N2C(=O)[C@@H](NC(=O)Cc3ccccc3)[C@H]2SC1` [desacetoxycephalosporin G, reference compound], the “Zone Size” value in the data set on Micrococcus luteus (2.5 micrograms on filter disc, incubated overnight at 37° C.) worked out at 2.5 cm.

As to `CC(CN1OC=C(O)CC1=O)C(=O)O` (stereo not drawn) [2-[2-carboxypropyl]-5-hydroxy-1,2-oxazin-3-one], the “Zone Size” value in the data set on Micrococcus luteus (12.0 micrograms on filter disc, incubated overnight at 37° C.) is reported as 2.0 cm. The “antibacterial activity, times the activity of 2-carboxymethyl-5-hydroxy-1,2-oxazin-3-one” value with Micrococcus luteus (relative to 2-carboxymethyl-5-hydroxy-1,2-oxazin-3-one, from Tables 1 and 2) was “approximately 50 times”.

As to `CC1(C)S[C@@H]2[C@H](NC(=O)Cc3ccccc3)C(=O)N2[C@H]1C(=O)O` [Penicillin G, reference compound], in the data set with Micrococcus luteus (0.1 micrograms on filter disc, incubated over night at 37° C.), the “Zone Size” value amounted to 1.6 cm.

Take `O=C(O)CN1OC=C(O)CC1=O` [2-carboxymethyl-5-hydroxy-1,2-oxazin-3-one]: the “Zone Size” value stood at 1.1 cm in the data set on Micrococcus luteus (100 micrograms on filter disc, incubated over night at 37° C.) and 2.0 cm with Micrococcus luteus (1000 micrograms on filter disc, incubated over night at 37° C.). Moreover, the “antibacterial activity (in words)” value in the data set with Micrococcus luteus (judged from Tables 1 and 2) was “weak antibacterial activity”. Moreover, the “antibacterial activity, times less than that of penicillin” value in the data set with Micrococcus luteus (relative to penicillin, from Tables 1 and 2) is reported as “at least 1000 times”.
